From patent US11691972B2, “Compounds for targeted degradation of BRD9” (C4 Therapeutics, Inc., priority 2020, dated 2023)

Target: T1, BRD9 (Homo sapiens, UniProt Q9H8M2)
T1 sequence (Q9H8M2 1-597): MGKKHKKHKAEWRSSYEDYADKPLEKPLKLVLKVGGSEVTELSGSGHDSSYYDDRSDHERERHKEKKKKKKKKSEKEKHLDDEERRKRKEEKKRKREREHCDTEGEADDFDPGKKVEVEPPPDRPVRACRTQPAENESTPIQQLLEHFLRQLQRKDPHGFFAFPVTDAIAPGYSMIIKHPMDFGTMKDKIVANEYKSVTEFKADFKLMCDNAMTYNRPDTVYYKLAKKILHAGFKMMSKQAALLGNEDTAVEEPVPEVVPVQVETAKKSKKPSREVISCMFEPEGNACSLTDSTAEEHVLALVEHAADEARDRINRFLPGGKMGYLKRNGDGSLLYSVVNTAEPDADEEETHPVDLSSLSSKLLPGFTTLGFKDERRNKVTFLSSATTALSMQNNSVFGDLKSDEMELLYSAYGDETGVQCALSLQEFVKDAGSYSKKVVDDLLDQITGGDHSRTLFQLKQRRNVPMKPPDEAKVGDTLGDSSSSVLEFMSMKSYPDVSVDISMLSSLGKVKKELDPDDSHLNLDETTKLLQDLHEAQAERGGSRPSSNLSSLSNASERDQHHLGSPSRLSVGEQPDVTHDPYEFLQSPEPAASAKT
Assay: HiBiT BRD9 degradation assay in 293T.166 (BRD9-HiBiT) cells
Assay type: cell-based
Set-up: endogenously expressing BRD9 with HiBiT fusion tag via CRISPR; host or cells: 293T.166 (BRD9-HiBiT), also expressing LgBiT ectopically
Conditions: Table 1; 293T.166 cells, 2.0 hours; class symbols; read-out: HiBiT-Degradation 293T.166 BRD9 2.0 hours (DC50)
Method in brief: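 293T.166 cells carrying endogenous CRISPR BRD9-HiBiT and expressing LgBiT treated 2 h at 37° C. with compounds, 11-point half-log titration from 10 μM in duplicate. Remaining BRD9 measured as lytic HiBiT luminescence; untreated cells as negative control, no-reagent wells as positive control.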

Row | DC50 [nM] | SMILES
1 | < 100 | COc1cc(-c2cn(C)c(=O)c3ccccc23)cc(OC)c1CN1CCc2c(CN3CCC(c4ccc(NC5CCC(=O)NC5=O)cc4)CC3)cccc2C1 (centres unmarked) [Compound 97]
2 | < 100 | COc1cc(-c2cn(C)c(=O)c3[nH]ncc23)cc(OC)c1CN1CCc2c(CN3CCC(c4ccc(NC5CCC(=O)NC5=O)cc4)CC3)cccc2C1 (centres unmarked) [Compound 98]
3 | < 100 | COc1cc(-c2cn(C)c(=O)c3[nH]ncc23)cc(OC)c1CN1CCc2c(CC3CCN(c4ccc(NC5CCC(=O)NC5=O)cc4)CC3)cccc2C1 (centres unmarked) [Compound 104, 3-[4-[4-[[2-[[2,6-dimethoxy-4-(6-methyl-7-oxo-1H-pyrazolo[3,4-c]pyridin-4-yl)phenyl]methyl]-3,4-dihydro-1H-isoquinolin-5-yl]methyl]-1-piperidyl]anilino]piperidine-2,6-dione]
4 | < 100 | COc1cc(-c2cn(C)c(=O)c3[nH]ncc23)cc(Cl)c1CN1CCc2c(CC3CCN(c4ccc(NC5CCC(=O)NC5=O)cc4F)CC3)cccc2C1 (centres unmarked) [Compound 105, 3-[4-[4-[[2-[[2-chloro-6-methoxy-4-(6-methyl-7-oxo-1H-pyrazolo[3,4-c]pyridin-4-yl)phenyl]methyl]-3,4-dihydro-1H-isoquinolin-5-yl]methyl]-1-piperidyl]-3-fluoro-anilino]piperidine-2,6-dione]
5 | < 100 | COc1cc(-c2cn(C)c(=O)c3[nH]ncc23)cc(OC)c1CN1CCc2c(CC3CCN(c4ccc(NC5CCC(=O)NC5=O)cc4F)CC3)cccc2C1 (centres unmarked) [Compound 106]
6 | < 100 | COc1cc(-c2cn(C)c(=O)c3[nH]ncc23)cc(F)c1CN1CCC(N(C)C(=O)N2CCC(c3ccc(NC4CCC(=O)NC4=O)cc3)CC2)CC1 (centres unmarked) [Compound 112, 4-[4[(2,6-dioxo-3-piperidyl)amino]phenyl]-N-[1-[[2-fluoro-6-methoxy-4-(6-methyl-7-oxo-1H-pyrazolo[3,4-c]pyridin-4-yl)phenyl]methyl]-4-piperidyl]-N-methyl-piperidine-1-carboxamide]
7 | < 100 | CN(C(=O)N1CCC(c2ccc(NC3CCC(=O)NC3=O)cc2)CC1)C1CCN(Cc2ccc(-c3cn(C)c(=O)c4ccccc34)cc2OC(F)(F)F)CC1 (centres unmarked) [Compound 113]
8 | < 100 | CN(C(=O)N1CCC(c2ccc(NC3CCC(=O)NC3=O)cc2)CC1)C1CCN(Cc2ccc(-c3cn(C)c(=O)c4cc(F)ccc34)cc2OC(F)(F)F)CC1 (centres unmarked) [Compound 114]
9 | < 100 | CN(C(=O)N1CCC(c2ccc(NC3CCC(=O)NC3=O)cc2)CC1)C1CCN(Cc2ccc(-c3cn(C)c(=O)c4[nH]ncc34)cc2OC(F)(F)F)CC1 (centres unmarked) [Compound 116]
10 | < 100 | COc1cc(-c2cn(C)c(=O)c3[nH]ncc23)cc(Cl)c1CN1CCC(N(C)C(=O)N2CCC(c3ccc(OC4CCC(=O)NC4=O)cc3)CC2)CC1 (centres unmarked) [Compound 120]
11 | < 100 | CN(C(=O)N1CCC(c2ccc(NC3CCC(=O)NC3=O)cc2)CC1)C1CCN(Cc2ccc(-c3cn(C)c(=O)c4cc(F)ccc34)cc2OC(F)(F)F)CC1(F)F (centres unmarked) [Compound 123]
12 | < 100 | COc1cc(-c2cn(C)c(=O)c3cnccc23)cc(F)c1CN1CCC(N(C)C(=O)N2CCC(c3ccc(NC4CCC(=O)NC4=O)cc3)CC2)C(F)(F)C1 (centres unmarked) [Compound 124]
13 | < 100 | CN(C(=O)N1CCC(c2ccc(NC3CCC(=O)NC3=O)cc2)CC1)C1CCN(C(=O)c2ccc(-c3cn(C)c(=O)c4ccc(F)cc34)cc2OC(F)(F)F)CC1 (centres unmarked) [Compound 128]
14 | < 100 | Cc1c(-c2ccc(C(=O)N3CCC(N(C)C(=O)N4CCC(c5ccc(NC6CCC(=O)NC6=O)cc5)CC4)CC3)c(OC(F)(F)F)c2)cn(C)c(=O)c1C (centres unmarked) [Compound 129]

More lines, now with the values behind:

Row | SMILES | DC50 [nM]
15 | COc1cc(-c2cn(C)c(=O)c3[nH]ncc23)cc(OC)c1CN1CCC(OC(=O)N2CCC(c3ccc(NC4CCC(=O)NC4=O)cc3)CC2)CC1 (centres unmarked) [Compound 94, [1-[[2,6-dimethoxy-4-(6-methyl-7-oxo-1H-pyrazolo[3,4-c]pyridin-4-yl)phenyl]methyl]-4-piperidyl] 4-[4-[(2,6-dioxo-3-piperidyl)amino]phenyl]piperidine-1-carboxylate] | < 100
16 | COc1cc(-c2cn(C)c(=O)c3[nH]ncc23)cc(OC)c1CN1CCc2c(cccc2CN2CCC(c3ccc(NC4CCC(=O)NC4=O)cc3)C(F)(F)C2)C1 (centres unmarked) [Compound 95, 3-[4-[1-[[2-[[2,6-dimethoxy-4-(6-methyl-7-oxo-1H-pyrazolo[3,4-c]pyridin-4-yl)phenyl]methyl]-3,4-dihydro-1H-isoquinolin-5-yl]methyl]-3,3-difluoro-4-piperidyl]anilino]piperidine-2,6-dione] | < 100
17 | COc1cc(-c2cn(C)c(=O)c3cnccc23)cc(OC)c1CN1CCc2c(CN3CCC(c4ccc(NC5CCC(=O)NC5=O)cc4)CC3)cccc2C1 (centres unmarked) [Compound 96] | < 100
18 | COc1cc(-c2cn(C)c(=O)c3cnccc23)cc(Cl)c1CN1CCc2c(cccc2CN2CCC(c3ccc(NC4CCC(=O)NC4=O)cc3)C(F)(F)C2)C1 (centres unmarked) [Compound 99] | < 100
19 | COc1cc(-c2cn(C)c(=O)c3[nH]ncc23)cc(Cl)c1CN1CCc2c(cccc2CN2CCC(c3ccc(NC4CCC(=O)NC4=O)cc3)C(F)(F)C2)C1 (centres unmarked) [Compound 100] | < 100
20 | Cn1cc(-c2ccc(CN3CCc4c(cccc4CN4CCC(c5ccc(NC6CCC(=O)NC6=O)cc5)C(F)(F)C4)C3)c(OC(F)(F)F)c2)c2cn[nH]c2c1=O (centres unmarked) [Compound 101] | < 100
21 | COc1cc(-c2cn(C)c(=O)c3[nH]ncc23)cc(OC)c1CN1CCn2c(CN3CCC(c4ccc(NC5CCC(=O)NC5=O)cc4)CC3)ccc2C1 (centres unmarked) [Compound 102] | < 100
22 | COc1cc(-c2cn(C)c(=O)c3[nH]ncc23)cc(OC)c1CN1CCc2c(CN3CCC(c4ccc(NC5CCC(=O)NC5=O)cc4)C(F)(F)C3)csc2C1 (centres unmarked) [Compound 103] | < 100
23 | COc1cc(-c2cn(C)c(=O)c3cnccc23)cc(Cl)c1CN1CCc2c(CC3CCN(c4ccc(NC5CCC(=O)NC5=O)cc4F)CC3)cccc2C1 (centres unmarked) [Compound 107] | < 100
24 | COc1cc(-c2cn(C)c(=O)c(C)c2C)cc(OC)c1CN1CCc2c(CC3CCN(c4ccc(NC5CCC(=O)NC5=O)cc4C(F)(F)F)CC3)cccc2C1 (centres unmarked) [Compound 108] | < 100
25 | COc1cc(-c2cn(C)c(=O)c(C)c2C)cc(Cl)c1CN1CCc2c(CC3CCN(c4ccc(NC5CCC(=O)NC5=O)cc4F)CC3)cccc2C1 (centres unmarked) [Compound 109] | < 100
26 | COc1cc(-c2cn(C)c(=O)c3[nH]ncc23)cc(OC)c1CN1C[C@H]2CC(C(=O)N3CCC(c4ccc(NC5CCC(=O)NC5=O)cc4)CC3)C[C@H]2C1 (stereo partly drawn) [Compound 110, 3-[4-[1-[(3aR,6aS)-2-[[2,6-dimethoxy-4-(6-methyl-7-oxo-1H-pyrazolo[3,4-c]pyridin-4-yl)phenyl]methyl]-3,3a,4,5,6,6a-hexahydro-1H-cyclopenta[c]pyrrole-5-carbonyl]-4-piperidyl]anilino]piperidine-2,6-dione] | < 100
27 | COc1cc(-c2cn(C)c(=O)c3[nH]ncc23)cc(OC)c1CN1CCN(C(=O)CN2CCN(c3ccc(NC4CCC(=O)NC4=O)cc3F)CC2)C(C)(C)C1 (centres unmarked) [Compound 111, 3-[4-[4-[2-[4-[[2,6-dimethoxy-4-(6-methyl-7-oxo-1H-pyrazolo[3,4-c]pyridin-4-yl)phenyl]methyl]-2,2-dimethyl-piperazin-1-yl]-2-oxo-ethyl]piperazin-1-yl]-3-fluoro-anilino]piperidine-2,6-dione] | < 100
28 | COc1cc(-c2cn(C)c(=O)c3cnccc23)cc(Cl)c1CN1CCC(N(C)C(=O)N2CCC(c3ccc(NC4CCC(=O)NC4=O)cc3)CC2)CC1 (centres unmarked) [Compound 115] | < 100
29 | COc1cc(-c2cn(C)c(=O)c3[nH]ncc23)cc(Cl)c1CN1CCC(N(C)C(=O)N2CCC(c3ccc(NC4CCC(=O)NC4=O)cc3)CC2)CC1 (centres unmarked) [Compound 117] | < 100
30 | COc1cc(-c2cn(C)c(=O)c3ccccc23)cc(F)c1CN1CCC(N(C)C(=O)N2CCC(c3ccc(NC4CCC(=O)NC4=O)cc3)CC2)CC1 (centres unmarked) [Compound 119] | < 100
31 | COc1cc(-c2cn(C)c(=O)c3ccccc23)cc(Cl)c1CN1CCC(N(C)C(=O)N2CCC(c3ccc(NC4CCC(=O)NC4=O)cc3)CC2)CC1 (centres unmarked) [Compound 121] | < 100
32 | CN(C(=O)N1CCC(c2ccc(NC3CCC(=O)NC3=O)cc2)CC1)C1CCN(Cc2ccc(-c3cn(C)c(=O)c4cnccc34)cc2OC(F)(F)F)CC1 (centres unmarked) [Compound 122] | < 100
33 | COc1cc(-c2cn(C)c(=O)c3cnccc23)cc(Cl)c1CN1CCC(N(C)C(=O)N2CCC(c3ccc(NC4CCC(=O)NC4=O)cc3)CC2)C(F)(F)C1 (centres unmarked) [Compound 125] | < 100
34 | COc1cc(-c2cn(C)c(=O)c3cnccc23)cc(Cl)c1C(=O)N1CCC(N(C)C(=O)N2CCC(c3ccc(NC4CCC(=O)NC4=O)cc3)CC2)CC1 (centres unmarked) [Compound 126, N-[1-[2-chloro-6-methoxy-4-(2-methyl-1-oxo-2,7-naphthyridin-4-yl)benzoyl]-4-piperidyl]-4-[4-[(2,6-dioxo-3-piperidyl)amino]phenyl]-N-methyl-piperidine-1-carboxamide] | < 100
35 | CN(C(=O)N1CCC(c2ccc(NC3CCC(=O)NC3=O)cc2)CC1)C1CCN(C(=O)c2ccc(-c3cn(C)c(=O)c4ccccc34)cc2OC(F)(F)F)CC1 (centres unmarked) [Compound 127] | < 100
